The term Emax denotes the maximal effect, on the per cent scale that the assay sets. One may read the pEC50 as the EC50 on a negative log10 scale, so that one unit is a factor of ten.

pEC50: −log10 of the molar value.

The source of these data is ChEMBL document CHEMBL5331092, “PROTACS: A technology with a gold rush-like atmosphere” (Eur J Med Chem, 2023).

For assay [1], the target named is T1, Protein cereblon/Estrogen receptor (Homo sapiens, UniProt P03372+Q96SW2). Kind of assay: Protac activity at CRBN E3 ligase/Estrogen receptor in human T47D cells assessed maximum degradation at 1.5 uM measured upto 24 hrs by ELISA method relative to control. The format is cell-based. (In general: In an ELISA, binding on a coated surface is turned into a signal by an enzyme label.)
Target sequence in this assay (P03372 whole entry, looked up): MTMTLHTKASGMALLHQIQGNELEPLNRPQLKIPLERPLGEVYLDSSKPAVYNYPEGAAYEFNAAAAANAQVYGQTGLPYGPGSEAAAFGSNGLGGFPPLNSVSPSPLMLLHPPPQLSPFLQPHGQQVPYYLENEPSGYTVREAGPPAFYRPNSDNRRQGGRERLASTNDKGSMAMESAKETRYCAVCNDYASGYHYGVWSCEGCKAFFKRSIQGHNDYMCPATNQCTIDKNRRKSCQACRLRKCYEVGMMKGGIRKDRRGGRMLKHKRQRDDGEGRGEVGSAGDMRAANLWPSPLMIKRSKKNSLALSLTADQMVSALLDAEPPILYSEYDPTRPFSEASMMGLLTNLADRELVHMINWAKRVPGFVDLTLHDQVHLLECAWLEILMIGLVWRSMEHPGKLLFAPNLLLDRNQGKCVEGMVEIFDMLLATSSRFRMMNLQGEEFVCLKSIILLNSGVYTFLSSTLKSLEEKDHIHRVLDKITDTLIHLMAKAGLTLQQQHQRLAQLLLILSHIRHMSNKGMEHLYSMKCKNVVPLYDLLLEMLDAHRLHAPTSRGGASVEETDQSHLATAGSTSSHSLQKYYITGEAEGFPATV
Target sequence in this assay (Q96SW2 whole entry, looked up): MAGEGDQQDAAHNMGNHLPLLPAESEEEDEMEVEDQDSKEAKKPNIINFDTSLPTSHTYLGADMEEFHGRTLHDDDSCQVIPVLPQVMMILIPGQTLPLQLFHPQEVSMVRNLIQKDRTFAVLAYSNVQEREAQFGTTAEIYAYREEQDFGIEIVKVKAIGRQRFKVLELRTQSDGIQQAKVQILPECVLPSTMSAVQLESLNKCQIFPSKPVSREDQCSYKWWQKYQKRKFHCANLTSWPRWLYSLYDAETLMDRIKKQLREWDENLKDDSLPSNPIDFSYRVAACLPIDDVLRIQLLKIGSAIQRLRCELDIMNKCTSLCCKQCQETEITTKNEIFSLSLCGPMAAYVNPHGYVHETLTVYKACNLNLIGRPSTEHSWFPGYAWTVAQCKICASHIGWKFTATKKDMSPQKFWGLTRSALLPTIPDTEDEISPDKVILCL

Assay [2] has as its target T1, Protein cereblon/Estrogen receptor. Kind of assay: Protac activity at CRBN E3 ligase/Estrogen receptor in human MCF7 cells assessed as induction of estrogen receptor degradation measured upto 24 hrs by ELISA method. The format is cell-based.
Target sequence in this assay (P03372 whole entry): as the sequence (P03372 whole entry, looked up) above
Target sequence in this assay (Q96SW2 whole entry): as the sequence (Q96SW2 whole entry, looked up) above
For assay [3] the target is unchanged. The assay can be described thus: Protac activity at CRBN E3 ligase/Estrogen receptor in human T47D cells assessed as induction of estrogen receptor degradation measured upto 24 hrs by ELISA method. The format is cell-based.
Target sequence in this assay (P03372 whole entry): as the sequence (P03372 whole entry, looked up) above
Target sequence in this assay (Q96SW2 whole entry): as the sequence (Q96SW2 whole entry, looked up) above
The target is the same in assay [4]. The assay can be described thus: Protac activity at CRBN E3 ligase/Estrogen receptor in human MCF7 cells assessed maximum degradation at 1.5 uM measured upto 24 hrs by ELISA method relative to control. The format is cell-based.
Target sequence in this assay (P03372 whole entry, looked up): as the sequence (P03372 whole entry, looked up) above
Target sequence in this assay (Q96SW2 whole entry, looked up): as the sequence (Q96SW2 whole entry, looked up) above
For assay [5], the target named is Protein cereblon/Focal adhesion kinase 1 (Homo sapiens) (UniProt Q05397+Q96SW2). Kind of assay: Protac activity at CRBN E3 ligase/FAK (unknown origin) assessed as […] FAK degradation at 10 nM relative to control. Details: scale not given: the % may be the effect or the level left. The format is protein assay.
In assay [6] the target is von Hippel-Lindau disease tumor suppressor/Androgen receptor (Homo sapiens) (UniProt P10275+P40337). Kind of assay: PROTAC activity at VHL/AR in human VCaP cells assessed as maximum degradation at 5 nM relative to control. The class given is cell-based.
Assay [7] addresses Protein cereblon/Tyrosine-protein kinase BTK (Homo sapiens, UniProt Q06187+Q96SW2). The assay can be described thus: PROTAC activity at CRBN/BTK in human TMD8 cells assessed as induction of BTK degradation incubated for 24 hrs by immunoblotting analysis. The format is cell-based.

Sequence of Protein cereblon/Focal adhesion kinase 1 (Homo sapiens) (Q05397 2-1052 limits assumed): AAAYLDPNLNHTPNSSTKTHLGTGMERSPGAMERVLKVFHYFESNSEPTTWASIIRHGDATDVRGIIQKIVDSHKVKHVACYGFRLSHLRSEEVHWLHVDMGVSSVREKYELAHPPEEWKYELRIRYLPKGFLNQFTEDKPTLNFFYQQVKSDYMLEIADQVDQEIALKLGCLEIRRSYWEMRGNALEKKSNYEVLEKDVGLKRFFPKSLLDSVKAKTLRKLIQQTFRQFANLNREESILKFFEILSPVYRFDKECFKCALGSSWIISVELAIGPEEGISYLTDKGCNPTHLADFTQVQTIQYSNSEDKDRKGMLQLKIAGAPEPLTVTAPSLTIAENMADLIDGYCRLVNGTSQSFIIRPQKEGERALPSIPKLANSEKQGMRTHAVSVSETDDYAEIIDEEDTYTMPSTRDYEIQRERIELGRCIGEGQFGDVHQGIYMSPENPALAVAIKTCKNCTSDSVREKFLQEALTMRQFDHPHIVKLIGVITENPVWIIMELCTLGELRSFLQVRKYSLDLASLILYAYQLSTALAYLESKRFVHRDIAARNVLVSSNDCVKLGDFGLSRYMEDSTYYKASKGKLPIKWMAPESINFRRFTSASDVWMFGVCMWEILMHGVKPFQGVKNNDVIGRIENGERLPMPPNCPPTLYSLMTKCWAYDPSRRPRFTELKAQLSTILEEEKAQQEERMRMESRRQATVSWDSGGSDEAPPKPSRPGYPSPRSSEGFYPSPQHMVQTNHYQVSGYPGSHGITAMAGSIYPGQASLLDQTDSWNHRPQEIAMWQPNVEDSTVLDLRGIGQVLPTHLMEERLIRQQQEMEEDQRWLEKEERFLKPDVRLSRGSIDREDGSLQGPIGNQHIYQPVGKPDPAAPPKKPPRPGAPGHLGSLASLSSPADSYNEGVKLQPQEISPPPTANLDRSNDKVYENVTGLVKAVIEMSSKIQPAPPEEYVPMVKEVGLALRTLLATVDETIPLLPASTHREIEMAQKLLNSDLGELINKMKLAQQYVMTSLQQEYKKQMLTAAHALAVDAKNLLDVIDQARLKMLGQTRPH
Sequence of Protein cereblon/Focal adhesion kinase 1 (Homo sapiens) (Q96SW2 whole entry partner): as the sequence (Q96SW2 whole entry, looked up) above
Sequence of von Hippel-Lindau disease tumor suppressor/Androgen receptor (Homo sapiens) (P10275 whole entry, looked up): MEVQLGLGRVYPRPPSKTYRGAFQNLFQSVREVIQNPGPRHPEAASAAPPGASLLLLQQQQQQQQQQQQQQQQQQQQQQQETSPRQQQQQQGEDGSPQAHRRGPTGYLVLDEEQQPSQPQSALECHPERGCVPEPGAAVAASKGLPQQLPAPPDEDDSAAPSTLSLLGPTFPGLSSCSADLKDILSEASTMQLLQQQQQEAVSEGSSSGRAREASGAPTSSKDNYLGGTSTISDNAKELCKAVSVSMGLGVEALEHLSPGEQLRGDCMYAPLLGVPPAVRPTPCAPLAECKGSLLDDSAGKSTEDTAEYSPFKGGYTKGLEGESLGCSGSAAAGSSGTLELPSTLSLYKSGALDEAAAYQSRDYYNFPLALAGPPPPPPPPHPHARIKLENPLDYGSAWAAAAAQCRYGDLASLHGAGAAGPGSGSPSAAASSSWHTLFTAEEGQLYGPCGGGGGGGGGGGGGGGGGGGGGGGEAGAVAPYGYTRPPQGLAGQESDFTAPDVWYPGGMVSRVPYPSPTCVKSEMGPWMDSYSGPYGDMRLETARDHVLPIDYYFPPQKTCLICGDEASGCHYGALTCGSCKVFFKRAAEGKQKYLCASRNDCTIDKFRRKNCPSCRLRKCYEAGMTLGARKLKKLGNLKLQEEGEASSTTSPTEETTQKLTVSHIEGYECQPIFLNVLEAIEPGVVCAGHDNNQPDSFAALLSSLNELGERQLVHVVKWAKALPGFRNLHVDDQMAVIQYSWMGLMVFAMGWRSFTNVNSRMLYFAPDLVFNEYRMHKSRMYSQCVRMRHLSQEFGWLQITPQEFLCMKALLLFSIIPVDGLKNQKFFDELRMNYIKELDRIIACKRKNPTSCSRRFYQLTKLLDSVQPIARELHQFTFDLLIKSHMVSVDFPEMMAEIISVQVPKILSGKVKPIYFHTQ
Sequence of von Hippel-Lindau disease tumor suppressor/Androgen receptor (Homo sapiens) (P40337 whole entry, looked up): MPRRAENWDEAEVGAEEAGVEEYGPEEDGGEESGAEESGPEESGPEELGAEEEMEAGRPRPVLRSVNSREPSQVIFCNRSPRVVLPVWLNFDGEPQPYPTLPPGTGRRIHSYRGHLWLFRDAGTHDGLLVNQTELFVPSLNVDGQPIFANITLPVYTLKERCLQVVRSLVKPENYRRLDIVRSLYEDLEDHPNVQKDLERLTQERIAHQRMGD
Sequence of Protein cereblon/Tyrosine-protein kinase BTK (Q06187 whole entry): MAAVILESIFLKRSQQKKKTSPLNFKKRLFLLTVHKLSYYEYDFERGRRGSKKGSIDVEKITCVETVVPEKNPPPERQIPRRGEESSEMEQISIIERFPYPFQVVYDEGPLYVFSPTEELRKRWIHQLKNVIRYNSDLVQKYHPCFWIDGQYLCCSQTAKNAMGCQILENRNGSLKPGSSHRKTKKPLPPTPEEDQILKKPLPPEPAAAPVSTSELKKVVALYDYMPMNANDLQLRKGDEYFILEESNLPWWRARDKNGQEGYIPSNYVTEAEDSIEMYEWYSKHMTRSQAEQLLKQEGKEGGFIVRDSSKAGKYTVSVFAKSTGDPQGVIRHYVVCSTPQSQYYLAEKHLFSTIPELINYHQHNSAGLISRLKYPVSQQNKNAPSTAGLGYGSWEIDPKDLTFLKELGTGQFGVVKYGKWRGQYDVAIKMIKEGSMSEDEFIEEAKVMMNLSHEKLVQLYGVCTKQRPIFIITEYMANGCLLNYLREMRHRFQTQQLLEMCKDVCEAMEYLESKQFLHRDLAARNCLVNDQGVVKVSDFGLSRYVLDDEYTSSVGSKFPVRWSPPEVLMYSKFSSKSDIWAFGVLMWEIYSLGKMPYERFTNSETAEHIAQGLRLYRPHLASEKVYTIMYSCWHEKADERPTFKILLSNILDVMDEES
Sequence of Protein cereblon/Tyrosine-protein kinase BTK (Q96SW2 whole entry): as the sequence (Q96SW2 whole entry, looked up) above

For the compound `Cc1ncsc1-c1ccc([C@H](C)NC(=O)C2C[C@@H](O)CN2C(=O)[C@@H](NC(=O)CCCCOc2ccc(/C=N/NC(=O)c3ccc(C(=O)c4c(-c5ccc(O)cc5)sc5cc(O)ccc45)cc3)cc2)C(C)(C)C)cc1` (some centres undefined), the Emax in assay [1] and in assay [4] was over 95% in each case. Further, the pEC50 in assay [2] and in assay [3] was 8.00 each time.

As for `Cc1ncsc1-c1ccc([C@H](C)NC(=O)C2C[C@@H](O)CN2C(=O)[C@@H](NC(=O)CCCCOc2ccc(CCNC(=O)c3ccc(C(=O)c4c(-c5ccc(O)cc5)sc5cc(O)ccc45)cc3)cc2)C(C)(C)C)cc1` (some centres undefined), the pEC50 in assay [2] is 8.96. The same compound displayed an Emax in assay [4] of 98%.

For `CN(c1ncccc1CNc1nc(Nc2ccc(NC(=O)c3cn(CCOCCOCCNc4cccc5c4C(=O)N(C4CCC(=O)NC4=O)C5=O)nn3)cc2)ncc1C(F)(F)F)S(C)(=O)=O` (centres undefined), in assay [5], the Activity was 90%.

With `Cc1ncsc1-c1ccc(CNC(=O)C2C[C@@H](O)CN2C(=O)C(NC(=O)COCCCCOc2ccc(-c3ccc(N4C(=S)N(c5ccc(C#N)c(C(F)(F)F)c5)C(=O)C4(C)C)cc3)cc2)C(C)(C)C)cc1` (some centres undefined), in assay [6], the Emax was determined as 95%.

For `Cc1cccc(C)c1Nc1nn(C)c2nc(Nc3ccc4c(c3)CN(CC3CCN(c5ccc6c(c5)C(=O)N(C5CCC(=O)NC5=O)C6=O)CC3)CC4)ncc12` (centres undefined), the pEC50 in assay [7] is 8.40.
